Source: patent US4740233A, “Substituted 1,2,4-triazolo[1,5-a]-pyrimidine-2-sulfonamides and compositions and methods of controlling undesired vegetation and suppressing the nitrification of ammonium nitrogen in soil” (The Dow Chemical Company, priority 1986, dated 1988)

Key:
corn = assay: Postemergent control of plant species; assay type: in vivo, Zea mays; conditions: Zea mays, post-emergence, 336 h, read-out: percent postemergent control
In short: (§1)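 Compounds in acetone mixed 1:1 with water containing 0.1% surfactant, sprayed postemergence on greenhouse plants at the 2-4 leaf stage. Growth reduction versus untreated plants of the same species scored after about two weeks.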

wild oats = assay: Postemergent control of plant species; assay type: in vivo, Avena fatua; conditions: Avena fatua, post-emergence, 336 h, read-out: percent postemergent control
In short: as §1

sorghum = assay: Postemergent control of plant species; assay type: in vivo, Sorghum vulgare; conditions: Sorghum, post-emergence, 336 h, read-out: percent postemergent control
In short: as §1

soybean = assay: Postemergent control of plant species; assay type: in vivo, Glycine max.; conditions: Glycine max, post-emergence, 336 h, read-out: percent postemergent control
In short: as §1

annual morning glory = assay: Postemergent control of plant species; assay type: in vivo, Ipomoea spp.; conditions: Ipomoea, post-emergence, 336 h, read-out: percent postemergent control
In short: as §1

rape = assay: Postemergent control of plant species; assay type: in vivo, Brassica napus; conditions: Brassica napus, post-emergence, 336 h, read-out: percent postemergent control
In short: as §1

sprangletop = assay: Control of aquatic plant species (paddy water); assay type: in vivo, Leptochloa filiformis; conditions: Leptochloa filiformis, 216 h, nine days, read-out: Percent control
In short: (§2)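 Plants transplanted at 1-2 inch stage into soil, flooded about 1 inch deep; acetone concentrate of compound injected into paddy water at varied volumes to set concentration. Percent control scored nine days after application.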

rice [1] = assay: Postemergent control of plant species; assay type: in vivo, Oryza sativa; conditions: Oryza sativa, post-emergence, 336 h, read-out: percent postemergent control
In short: as §1

barnyardgrass [2] = assay: Control of aquatic plant species (paddy water); assay type: in vivo, Echinochloa crusgalli; conditions: Echinochloa crus-galli, 216 h, nine days, read-out: Percent control
Description: In testing for such utility, the plant species to be tested were transplanted into 16 oz. containers into about 2 inches of soil when they were in the 1-2 inch stage and then flooded to a depth of about 1 inch. An acetone concentrate of the chemical to be tested was then injected into the paddy water, the volume injected being varied as desired to provide the desired concentration. Percent control was evaluated nine days after application.

yellow nutsedge [3] = assay: Postemergent control of plant species; assay type: in vivo, Cyperus esculentus; conditions: Cyperus, post-emergence, 336 h, read-out: percent postemergent control
In short: as §1

jimsonweed = assay: Postemergent control of plant species; assay type: in vivo, Datura stramonium; conditions: Datura stramonium, post-emergence, 336 h, read-out: percent postemergent control
In short: as §1

yellow nutsedge [4] = assay: Control of aquatic plant species (paddy water); assay type: in vivo, Cyperus esculentus; conditions: Cyperus, 216 h, nine days, read-out: Percent control
In short: as §2

[5] = system: nitrification of ammonium nitrogen; assay: Suppression of nitrification of ammonium nitrogen in soil; conditions: 27° C.
In short: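 Soil (20 g) moistened to its 1/3 bar tension value, mixed with test chemical and incubated sealed for two weeks at 27° C. Nitrate extracted with ammonium sulfate solution and measured by nitrate-specific ion electrode; value given as % NH4-N remaining.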

cocklebur = assay: Postemergent control of plant species; assay type: in vivo, Xanthium spp.; conditions: Xanthium strumarium, post-emergence, 336 h, read-out: percent postemergent control
In short: as §1

wheat = assay: Postemergent control of plant species; assay type: in vivo, Triticum aestivum; conditions: Triticum aestivum, post-emergence, 336 h, read-out: percent postemergent control
In short: as §1

sugar beet = assay: Postemergent control of plant species; assay type: in vivo, Beta saccharifera; conditions: Beta vulgaris, post-emergence, 336 h, read-out: percent postemergent control
In short: as §1

johnson grass = assay: Postemergent control of plant species; assay type: in vivo, Sorghum halepense; conditions: Sorghum halepense, post-emergence, 336 h, read-out: percent postemergent control
In short: as §1

rice [6] = assay: Control of aquatic plant species (paddy water); assay type: in vivo, Oryza sativa; conditions: Oryza sativa, 216 h, nine days, read-out: Percent control
In short: as §2

barnyardgrass [7] = assay: Postemergent control of plant species; assay type: in vivo, Echinochloa crusgalli; conditions: Echinochloa crus-galli, post-emergence, 336 h, read-out: percent postemergent control
In short: as §1

pigweed = assay: Postemergent control of plant species; assay type: in vivo, Amaranthus spp.; conditions: Amaranthus retroflexus, post-emergence, 336 h, read-out: percent postemergent control
In short: as §1

velvetleaf = assay: Postemergent control of plant species; assay type: in vivo, Abutilon theophrasti; conditions: Abutilon theophrasti, post-emergence, 336 h, read-out: percent postemergent control
In short: as §1

yellow foxtail = assay: Postemergent control of plant species; assay type: in vivo, Setaria lutescens; conditions: Setaria, post-emergence, 336 h, read-out: percent postemergent control
In short: as §1

cotton = assay: Postemergent control of plant species; assay type: in vivo, Gossypium spp.; conditions: Gossypium hirsutum, post-emergence, 336 h, read-out: percent postemergent control
In short: as §1

crabgrass = assay: Postemergent control of plant species; assay type: in vivo, Digitaria spp.; conditions: Digitaria sanguinalis, post-emergence, 336 h, read-out: percent postemergent control
In short: as §1

Compound: Cc1cc(C)n2nc(S(=O)(=O)Nc3c(C)cccc3C)nc2n1 [Compound 32, 5,7-dimethyl-N-(2,6-dimethylphenyl)-1,2,4-triazolo[1,5-a]pyrimidine-2-sulfonamide]
- plant injury at 500 ppm (corn): 0%
- pest or weed control at 500 ppm (wild oats): 0%
- plant injury at 500 ppm (sorghum): 0%
- plant injury at 500 ppm (soybean): 15%
- pest or weed control at 500 ppm (annual morning glory): 0%
- plant injury at 500 ppm (rape): 0%
- pest or weed control at 500 g/ha (sprangletop; 0.5 Kg/Ha): 95%
- plant injury at 500 ppm (rice [1]): 10%
- pest or weed control at 500 g/ha (barnyardgrass [2]; 0.5 Kg/Ha): 97%
- pest or weed control at 500 ppm (yellow nutsedge [3]): 0%
- pest or weed control at 500 ppm (jimsonweed): 60%
- pest or weed control at 500 g/ha (yellow nutsedge [4]; 0.5 Kg/Ha): 95%
- % NH4-N Remaining After 2 Weeks Incubation ([5]; 0.01 ppm): 0%
- % NH4-N Remaining After 2 Weeks Incubation ([5]; 0.1 ppm): 33%
- % NH4-N Remaining After 2 Weeks Incubation ([5]; 1 ppm): 82%
- % NH4-N Remaining After 2 Weeks Incubation ([5]; 10 ppm): 100%
- pest or weed control at 500 ppm (cocklebur): 15%
- plant injury at 500 ppm (wheat): 30%
- plant injury at 500 ppm (sugar beet): 30%
- pest or weed control at 500 ppm (johnson grass): 95%
- pest or weed control at 500 g/ha (rice [6]; 0.5 Kg/Ha): 93%
- pest or weed control at 500 ppm (barnyardgrass [7]): 0%
- pest or weed control at 500 ppm (pigweed): 0%
- pest or weed control at 500 ppm (velvetleaf): 50%
- pest or weed control at 500 ppm (yellow foxtail): 10%
- plant injury at 500 ppm (cotton): 20%
- pest or weed control at 500 ppm (crabgrass): 10%

Compound: COc1ccccc1NS(=O)(=O)c1nc2nc(C)cc(C)n2n1 [Compound 4]
- plant injury at 500 ppm (corn): 0%
- pest or weed control at 500 ppm (wild oats): 0%
- plant injury at 500 ppm (sorghum): 40%
- plant injury at 500 ppm (soybean): 40%
- pest or weed control at 500 ppm (annual morning glory): 0%
- plant injury at 500 ppm (rape): 40%
- pest or weed control at 2000 g/ha (sprangletop; 2.0 Kg/Ha): 45%
- plant injury at 500 ppm (rice [1]): 40%
- pest or weed control at 2000 g/ha (barnyardgrass [2]; 2.0 Kg/Ha): 95%
- pest or weed control at 500 ppm (yellow nutsedge [3]): 0%
- pest or weed control at 500 ppm (jimsonweed): 60%
- pest or weed control at 2000 g/ha (yellow nutsedge [4]; 2.0 Kg/Ha): 80%
- % NH4-N Remaining After 2 Weeks Incubation ([5]; 0.01 ppm): 0%
- % NH4-N Remaining After 2 Weeks Incubation ([5]; 0.1 ppm): 0%
- % NH4-N Remaining After 2 Weeks Incubation ([5]; 1 ppm): 38%
- % NH4-N Remaining After 2 Weeks Incubation ([5]; 10 ppm): 71%
- pest or weed control at 500 ppm (cocklebur): 40%
- plant injury at 500 ppm (wheat): 0%
- plant injury at 500 ppm (sugar beet): 70%
- pest or weed control at 500 ppm (johnson grass): 80%
- pest or weed control at 2000 g/ha (rice [6]; 2.0 Kg/Ha): 90%
- pest or weed control at 500 ppm (barnyardgrass [7]): 0%
- pest or weed control at 500 ppm (pigweed): 0%
- pest or weed control at 500 ppm (velvetleaf): 60%
- pest or weed control at 500 ppm (yellow foxtail): 0%
- plant injury at 500 ppm (cotton): 10%
- pest or weed control at 500 ppm (crabgrass): 20%

Compound: Cc1cc(C)n2nc(S(=O)(=O)Nc3cccc(Cl)c3)nc2n1 [Compound 17]
- plant injury at 500 ppm (corn): 20%
- pest or weed control at 500 ppm (wild oats): 0%
- plant injury at 500 ppm (sorghum): 40%
- plant injury at 500 ppm (soybean): 15%
- pest or weed control at 500 ppm (annual morning glory): 0%
- plant injury at 500 ppm (rape): 70%
- pest or weed control at 4000 g/ha (sprangletop; 4.0 Kg/Ha): 0%
- plant injury at 500 ppm (rice [1]): 0%
- pest or weed control at 4000 g/ha (barnyardgrass [2]; 4.0 Kg/Ha): 40%
- pest or weed control at 500 ppm (yellow nutsedge [3]): 0%
- pest or weed control at 500 ppm (jimsonweed): 0%
- pest or weed control at 4000 g/ha (yellow nutsedge [4]; 4.0 Kg/Ha): 90%
- % NH4-N Remaining After 2 Weeks Incubation ([5]; 0.01 ppm): 0%
- % NH4-N Remaining After 2 Weeks Incubation ([5]; 0.1 ppm): 1%
- % NH4-N Remaining After 2 Weeks Incubation ([5]; 1 ppm): 38%
- % NH4-N Remaining After 2 Weeks Incubation ([5]; 10 ppm): 80%
- pest or weed control at 500 ppm (cocklebur): 10%
- plant injury at 500 ppm (wheat): 0%
- plant injury at 500 ppm (sugar beet): 10%
- pest or weed control at 500 ppm (johnson grass): 60%
- pest or weed control at 4000 g/ha (rice [6]; 4.0 Kg/Ha): 97%
- pest or weed control at 500 ppm (barnyardgrass [7]): 0%
- pest or weed control at 500 ppm (pigweed): 50%
- pest or weed control at 500 ppm (velvetleaf): 70%
- pest or weed control at 500 ppm (yellow foxtail): 20%
- plant injury at 500 ppm (cotton): 15%
- pest or weed control at 500 ppm (crabgrass): 0%
